What all share (assay): intrinsic tryptophan fluorescence quenching
Holding throughout (assay type): binding

Test [1] addresses T1, BjPutA (proline utilization A) (Bradyrhizobium diazoefficiens, UniProt Q89E26, D779A).
T1 sequence (Q89E26 1-999 D779A): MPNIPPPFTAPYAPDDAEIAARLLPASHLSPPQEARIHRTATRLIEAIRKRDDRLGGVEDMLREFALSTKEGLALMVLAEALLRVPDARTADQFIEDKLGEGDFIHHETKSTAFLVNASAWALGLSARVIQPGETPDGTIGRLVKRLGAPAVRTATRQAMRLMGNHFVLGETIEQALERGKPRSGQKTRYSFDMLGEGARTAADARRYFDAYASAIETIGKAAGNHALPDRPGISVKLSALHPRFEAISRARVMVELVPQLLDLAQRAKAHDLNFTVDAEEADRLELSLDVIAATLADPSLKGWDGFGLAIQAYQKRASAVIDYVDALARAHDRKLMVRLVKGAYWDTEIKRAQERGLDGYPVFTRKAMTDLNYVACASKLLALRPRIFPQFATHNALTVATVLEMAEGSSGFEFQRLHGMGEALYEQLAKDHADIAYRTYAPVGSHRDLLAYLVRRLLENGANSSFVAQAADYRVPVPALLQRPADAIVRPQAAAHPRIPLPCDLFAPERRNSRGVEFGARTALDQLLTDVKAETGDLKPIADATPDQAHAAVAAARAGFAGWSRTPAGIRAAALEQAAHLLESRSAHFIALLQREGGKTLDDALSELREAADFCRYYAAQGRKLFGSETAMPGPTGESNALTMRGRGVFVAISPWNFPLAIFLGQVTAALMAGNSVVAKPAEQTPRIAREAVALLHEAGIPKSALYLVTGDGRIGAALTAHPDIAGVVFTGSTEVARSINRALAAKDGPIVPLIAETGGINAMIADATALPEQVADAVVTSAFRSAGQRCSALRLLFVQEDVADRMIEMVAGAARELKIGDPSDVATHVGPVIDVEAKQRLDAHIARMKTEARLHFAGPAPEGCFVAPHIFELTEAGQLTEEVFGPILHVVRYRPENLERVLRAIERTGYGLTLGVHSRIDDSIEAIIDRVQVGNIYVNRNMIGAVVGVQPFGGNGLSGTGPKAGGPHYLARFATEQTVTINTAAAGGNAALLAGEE

Test [2] addresses T2, BjPutA (proline utilization A) (Bradyrhizobium diazoefficiens, UniProt Q89E26, S607Y).
T2 sequence (Q89E26 1-999 S607Y): T1 sequence (Q89E26 1-999 D779A) with S607Y, A779D

Test [3] concerns the target T3, BjPutA (proline utilization A) (Bradyrhizobium diazoefficiens, UniProt Q89E26, D779Y).
T3 sequence (Q89E26 1-999 D779Y): T1 sequence (Q89E26 1-999 D779A) with A779Y

Structures are written as SMILES. Residue numbers refer to the chain shown, from its start.

Broadly, the Kd is the constant that tells how readily two partners part at equilibrium. In the case of `NC(=O)c1ccc[n+]([C@@H]2O[C@H](COP(=O)(O)OP(=O)(O)OC[C@H]3O[C@@H](n4cnc5c(N)ncnc54)[C@H](O)[C@@H]3O)[C@@H](O)[C@H]2O)c1` [NAD^+], the Kd was determined as 0.64 ± 0.05 µM in test [1], 1 ± 0.04 µM in test [2] and 0.65 ± 0.04 µM in test [3].

The record behind these values is PMC4131897 (Biochemistry, 2014).
